Drawing on ChEMBL document CHEMBL1138038, “Sequence-based design and discovery of peptide inhibitors of HIV-1 integrase: insight into the binding mode of the enzyme” (J Med Chem, 2006), this text covers IC50 for 54 compounds.

As usually defined, the IC50 is the concentration that inhibits the measured activity by half. The low end stands for inhibition by little substance, the high end for a need for much substance.

Residues, ends and D or L forms follow the SMILES beside them. Bounds are passed on as bounds.

For assay [1], the target named is T1, Human immunodeficiency virus type 1 integrase (Human immunodeficiency virus 1, UniProt Q7ZJM1). Put plainly: Inhibition of wild type HIV1 integrase 3' processing activity.
T1 sequence (Q7ZJM1 whole entry): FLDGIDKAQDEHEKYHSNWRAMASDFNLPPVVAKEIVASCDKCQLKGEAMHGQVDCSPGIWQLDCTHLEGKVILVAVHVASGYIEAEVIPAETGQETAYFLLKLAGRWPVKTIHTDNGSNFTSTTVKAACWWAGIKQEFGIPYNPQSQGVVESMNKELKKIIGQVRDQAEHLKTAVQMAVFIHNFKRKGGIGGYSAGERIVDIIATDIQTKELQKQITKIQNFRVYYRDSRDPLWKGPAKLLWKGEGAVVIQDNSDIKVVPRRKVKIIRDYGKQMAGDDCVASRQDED
The target in assay [2] is T1, Human immunodeficiency virus type 1 integrase. In words: Inhibition of wild type HIV1 integrase strand transfer activity.

`CC(C)C[C@@H](NC(=O)[C@@H](CCCCN)NC(=O)[C@@H](CC(C)C)NC(=O)[C@@H](CC(C)C)NC(=O)[C@@H](Cc1ccccc1)NC(=O)[C@@H](Cc1ccc(O)cc1)NC(=O)[C@@H](C)NC(=O)[C@H](N)[C@H](C)O)C(=O)N[C@H](C)C(=O)NCC(=O)N[C@H](CCCN=C(N)N)C(=O)N[C@H](Cc1c[nH]c2ccccc12)C(N)=O`: the IC50 in assay [1] came out at 65 µM; in assay [2], 13 µM.
Turning to `CC(C)C[C@@H](NC(=O)[C@@H](C)NC(=O)CNC(=O)[C@@H](CCCN=C(N)N)NC(=O)[C@H](N)Cc1c[nH]c2ccccc12)C(=O)N[C@H](CCCCN)C(=O)N[C@H](CC(C)C)C(=O)N[C@H](CC(C)C)C(=O)N[C@H](Cc1ccccc1)C(=O)N[C@H](Cc1ccc(O)cc1)C(=O)N[C@H](C)C(=O)N[C@@H](C(=O)O)[C@H](C)O`, the results for the IC50 in assay [1] and in assay [2] were 3.5 µM and 4 µM, respectively.
Regarding `CC[C@@H](C)[C@@H](NC(=O)[C@@H](CCCCN)NC(=O)[C@@H](CCC(N)=O)NC(=O)[C@@H](CCC(=O)O)NC(=O)[C@H](N)Cc1ccccc1)C(=O)NCC(=O)N[C@H](C)C(=O)N[C@H](Cc1c[nH]c2ccccc12)C(=O)N[C@H](Cc1c[nH]c2ccccc12)C(=O)N[C@@H](CS)C(=O)N[C@H](C)C(=O)O`, the 50% inhibitory concentration (IC50) in assay [1] and in assay [2] was over 1000 µM each time.
As for `CC[C@@H](C)[C@@H](NC(=O)CNC(=O)[C@@H](C)NC(=O)[C@@H](Cc1c[nH]c2ccccc12)NC(=O)[C@@H](Cc1c[nH]c2ccccc12)NC(=O)[C@@H](CS)NC(=O)[C@@H](C)N)C(=O)N[C@H](CCCCN)C(=O)N[C@H](CCC(N)=O)C(=O)N[C@H](CCC(=O)O)C(=O)N[C@H](Cc1ccccc1)C(=O)O`, the half-inhibitory concentration (IC50) in assay [1] and in assay [2] was over 1000 µM in each case.
Take `CC(C)C[C@@H](NC(=O)[C@@H](CCCCN)NC(=O)[C@@H](CC(C)C)NC(=O)[C@@H](CC(C)C)NC(=O)[C@@H](Cc1ccccc1)NC(=O)[C@@H](Cc1ccc(O)cc1)NC(=O)[C@@H](C)NC(=O)[C@H](N)[C@H](C)O)C(=O)N[C@H](C)C(=O)NCC(=O)N[C@H](CCCN=C(N)N)C(=O)N[C@H](Cc1c[nH]c2ccccc12)C(=O)O`: the 50% inhibitory concentration (IC50) in assay [1] stood at 96 µM; in assay [2] it was 16 µM.
For `CC[C@H](C)[C@H](NC(=O)[C@H](CCCCN)NC(=O)[C@H](CCC(N)=O)NC(=O)[C@H](CCC(=O)O)NC(=O)[C@@H](N)Cc1ccccc1)C(=O)NCC(=O)N[C@@H](C)C(=O)N[C@@H](Cc1c[nH]c2ccccc12)C(=O)N[C@@H](Cc1c[nH]c2ccccc12)C(=O)N[C@@H](CS)C(=O)N[C@@H](C)C(=O)O` the same measures were over 1000 µM and over 1000 µM.
For `CC(C)C[C@H](NC(=O)[C@H](CCCCN)NC(=O)[C@H](CC(C)C)NC(=O)[C@H](CC(C)C)NC(=O)[C@H](Cc1ccccc1)NC(=O)[C@H](Cc1ccc(O)cc1)NC(=O)[C@H](C)NC(=O)[C@@H](N)[C@@H](C)O)C(=O)N[C@@H](C)C(=O)N[C@@H](C)C(=O)N[C@@H](CCCN=C(N)N)C(=O)N[C@@H](Cc1c[nH]c2ccccc12)C(=O)O` the same measures were 118 µM and 19 µM.
For `CC(C)C[C@H](NC(=O)[C@H](CCCCN)NC(=O)[C@H](CC(C)C)NC(=O)[C@H](CC(C)C)NC(=O)[C@H](Cc1ccccc1)NC(=O)[C@H](Cc1ccc(O)cc1)NC(=O)[C@H](C)NC(=O)[C@@H](N)[C@@H](C)O)C(=O)N[C@@H](C)C(=O)NCC(=O)N[C@@H](CCCN=C(N)N)C(=O)N[C@@H](Cc1c[nH]c2ccccc12)C(N)=O` the same measures were 21 µM and 2.7 µM.
Regarding `CC(C)C[C@H](NC(=O)[C@H](CCC(N)=O)NC(=O)[C@H](CS)NC(=O)[C@H](CCCCN)NC(=O)[C@H](CC(=O)O)NC(=O)[C@H](CS)NC(=O)[C@H](CO)NC(=O)[C@H](C)N)C(=O)N[C@@H](CCCCN)C(=O)NCC(N)=O` (H-ASCDKCQLKG-NH2), the IC50 in assay [1] and in assay [2] was over 2000 µM in each case.
In the case of `CC[C@H](C)[C@H](NC(=O)CNC(=O)[C@@H]1CCCN1C(=O)[C@H](CO)NC(=O)[C@H](CS)NC(=O)[C@H](CC(=O)O)NC(=O)[C@@H](NC(=O)[C@H](CCC(N)=O)NC(=O)CNC(=O)[C@@H](N)Cc1cnc[nH]1)C(C)C)C(=O)N[C@@H](Cc1c[nH]c2ccccc12)C(=O)N[C@@H](CCC(N)=O)C(=O)N[C@@H](CC(C)C)C(=O)N[C@@H](CC(=O)O)C(=O)N[C@@H](CS)C(=O)N[C@H](C(=O)N[C@@H](Cc1cnc[nH]1)C(N)=O)[C@@H](C)O` (H-HGQVDCSPGIWQLDCTH-NH2), the IC50 in assay [1] and in assay [2] was 1000 µM each time.
Take H-AAWWAGIKQEF-OH: the half-inhibitory concentration (IC50) amounted to 277 µM in assay [1] and 311 µM in assay [2].
For H-AAYFLLKLAGRW-OH the same measures were 100 µM and 47 µM.
For the compound H-ACAWAGIKQEF-OH, the values for the half-inhibitory concentration (IC50) in assay [1] and in assay [2] were 33 µM and 34 µM, respectively.
In the same order, the values of H-ACGWAGIKQEF-NH2 are 46 µM and 16 µM.
For H-ACWAAGIKQEF-OH, the IC50 in assay [1] and in assay [2] was over 333 µM in each case.
For H-ACWGAGIKQEF-NH2, the IC50 in assay [1] and in assay [2] was over 333 µM each time.
Turning to H-ACWWAAIKQEF-OH, the results for the 50% inhibitory concentration (IC50) in assay [1] and in assay [2] were 90 µM and 43 µM, respectively.
For the compound H-ACWWAG-NH2, the figures for the IC50 in assay [1] and in assay [2] were over 100 µM and 60 µM, respectively.
In the same order, the values of H-ACWWAGAKQEF-OH are over 333 µM and over 333 µM.
Turning to H-ACWWAGIAQEF-OH, the figures for the IC50 in assay [1] and in assay [2] were 62 µM and 55 µM, respectively.
For H-ACWWAGIKAEF-OH the same measures were over 333 µM and over 333 µM.
For H-ACWWAGIKQAF-OH the same measures were over 333 µM and over 333 µM.
In the same order, the values of H-ACWWAGIKQEA-OH are 245 µM and 206 µM.
For H-ACWWAGIKQEF-NH2, the results for the concentration for half-maximal inhibition (IC50) in assay [1] and in assay [2] were 95 µM and 56 µM, respectively.
For H-ACWWAGIRQEF-NH2 the same measures were over 333 µM and over 333 µM.
For the compound H-ASWWAGIKQEF-NH2, the IC50 in assay [1] was 294 µM; in assay [2] it was 163 µM.
Take H-EEHEKYHSNW-NH2: the IC50 in assay [1] and in assay [2] was over 2000 µM throughout.
In the case of H-ESMNKELKKI-NH2, the concentration for half-maximal inhibition (IC50) in assay [1] and in assay [2] was over 2000 µM throughout.
With H-FGIPYNPQSQ-NH2, the half-maximal inhibitory concentration (IC50) in assay [1] and in assay [2] was over 1000 µM throughout.
In the case of H-FIHNFKRK-NH2, the IC50 in assay [1] and in assay [2] was over 2000 µM each time.
On to H-GRWPVKT-NH2, for which the IC50 in assay [1] and in assay [2] was over 2000 µM in each case.
On to H-GYSAGERIVD-NH2, for which the IC50 in assay [1] and in assay [2] was over 2000 µM in each case.
With H-HTDNGSNF-NH2, the IC50 in assay [1] and in assay [2] was over 2000 µM each time.
As for H-IKQEF-NH2, the IC50 in assay [1] and in assay [2] was over 100 µM each time.
With H-KLAGRW-NH2, the IC50 in assay [1] and in assay [2] was over 100 µM throughout.
For the compound H-PAETGQET-NH2, the IC50 in assay [1] and in assay [2] was over 2000 µM throughout.
Take H-TAAFLLKLAGRW-OH: the IC50 in assay [1] is 193 µM; in assay [2], 119 µM.
In the same order, the values of H-TASFLLKLAGRW-NH2 are 186 µM and 11 µM.
Consider H-TAYALLKLAGRW-OH, for which the IC50 in assay [1] and in assay [2] was over 333 µM in each case.
For H-TAYFALKLAGRW-OH, the half-maximal inhibitory concentration (IC50) in assay [1] came to 115 µM; in assay [2], 51 µM.
As for H-TAYFLAKLAGRW-OH, the IC50 in assay [1] and in assay [2] was over 333 µM throughout.
As for H-TAYFLL-NH2, the concentration for half-maximal inhibition (IC50) in assay [1] and in assay [2] was 500 µM in each case.
Take H-TAYFLLALAGRW-OH: the values for the IC50 in assay [1] and in assay [2] were 113 µM and 56 µM, respectively.
Consider H-TAYFLLILAGRW-NH2, for which the IC50 in assay [1] stood at 4.1 µM; in assay [2], 3 µM.
On to H-TAYFLLKAAGRW-OH, for which the concentration for half-maximal inhibition (IC50) was over 333 µM in assay [1] and 106 µM in assay [2].
Turning to H-TAYFLLKLAGAW-OH, the results for the half-inhibitory concentration (IC50) in assay [1] and in assay [2] were 83 µM and 80 µM, respectively.
In the same order, the values of H-TAYFLLKLAGRA-OH are over 333 µM and over 333 µM.
Consider H-TAYFLLKLAGRL-NH2, for which the 50% inhibitory concentration (IC50) in assay [1] was determined as 315 µM; in assay [2] it was 38 µM.
In the case of H-VHVASGY-NH2, the 50% inhibitory concentration (IC50) in assay [1] and in assay [2] was over 2000 µM in each case.
For the compound H-VPRRKAKI-NH2, the IC50 in assay [1] and in assay [2] was over 1000 µM throughout.
On to H-VRDQAEHLKT-NH2, for which the IC50 in assay [1] and in assay [2] was over 2000 µM each time.
With H-WAGIKQ-NH2, the IC50 in assay [1] and in assay [2] was over 100 µM throughout.
On to H-WKGPAKLLWK-NH2, for which the half-inhibitory concentration (IC50) in assay [1] and in assay [2] was over 1000 µM throughout.
Regarding H-YFLLKL-NH2, the IC50 in assay [1] and in assay [2] was 20 µM each time.
